{"source": "patent US8455475B2", "about": "(Gruenenthal GmbH, priority 2009, dated 2013)"}
{"molecular_target": "T1, rat B1R (bradykinin receptor 1) (Rattus norvegicus, UniProt P97583)", "T1 construct": "expressed in transfected cells; host or cells: CHO K1 cells", "T1 sequence (P97583 1-337)": "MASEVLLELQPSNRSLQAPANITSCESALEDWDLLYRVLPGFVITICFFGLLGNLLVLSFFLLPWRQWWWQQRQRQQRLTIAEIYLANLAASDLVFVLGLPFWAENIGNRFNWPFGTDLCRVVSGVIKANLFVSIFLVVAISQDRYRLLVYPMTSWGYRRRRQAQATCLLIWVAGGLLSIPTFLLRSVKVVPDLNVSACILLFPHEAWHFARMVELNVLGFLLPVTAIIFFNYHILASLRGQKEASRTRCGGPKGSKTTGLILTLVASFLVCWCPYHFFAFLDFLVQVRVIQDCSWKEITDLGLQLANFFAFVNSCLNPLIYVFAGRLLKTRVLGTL", "test": "FLIPR Ca2+ assay (Fluo-4) on CHO K1 cells stably transfected with the B1R gene of the rat (rB1R cells): % inhibition at 10 μM / IC50, agonist Des-Arg9-bradykinin", "format": "cell-based", "conditions": "CHO-K1, rat B1R", "method_in_brief": "(§1)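 Antagonism is measured as the drop in peak Fluo-4 Ca2+ signal when the EC80 agonist follows 10–20 min compound exposure. The single-point screen uses 10 μM; IC50 uses several concentrations. Values are given as % of maximal achievable inhibition.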", "units": {"inhibition at 10 µM": "%"}}
{"molecule": "COc1ccc(CN2CCC3(CC2)CCN(C(=O)c2ccc4c(c2)C(N2Cc5c(c6c(Cl)cccc6n5C)C2=O)CC4)C3)cc1F", "note": "(stereo not drawn) [IND_CC-794, 8-Chloro-2-[6-[8-[(3-fluoro-4-methoxy-phenyl)-methyl]-2,8-diazaspiro[4.5]-decane-2-carbonyl]-2,3-dihydro-1H-inden-1-yl]-4-methyl-3,4-dihydro-2H-pyrrolo[3,4-b]indol-1-one]", "inhibition at 10 µM": 59}
{"molecule": "COc1cccc(F)c1CN1CCC2(CC1)CCN(C(=O)c1ccc3c(c1)C(N1Cc4c(c5c(Cl)cccc5n4C)C1=O)CC3)C2", "note": "(stereo not drawn) [IND_CC-795, 8-Chloro-2-[6-[8-[(2-fluoro-6-methoxy-phenyl)-methyl]-2,8-diazaspiro[4.5]-decane-2-carbonyl]-2,3-dihydro-1H-inden-1-yl]-4-methyl-3,4-dihydro-2H-pyrrolo[3,4-b]indol-1-one]", "inhibition at 10 µM": 54}
{"molecule": "Cn1cncc1CN1CCC2(CC1)CCN(C(=O)c1ccc3c(c1)C(NC(=O)c1c(F)cccc1Cl)CC3)CC2", "note": "(stereo not drawn) [IND_CC-796, 2-Chloro-6-fluoro-N-[6-[9-[(3-methyl-3H-imidazol-4-yl)-methyl]-3,9-diazaspiro[5.5]undecane-3-carbonyl]-2,3-dihydro-1H-inden-1-yl]-benzamide]", "inhibition at 10 µM": 66}
{"molecule": "O=C(NC1CCc2ccc(C(=O)N3CCC4(CCN(Cc5csnn5)CC4)CC3)cc21)c1c(F)cccc1Cl", "note": "(stereo not drawn) [IND_CC-797, 2-Chloro-6-fluoro-N-[6-[9-([1,2,3]thiadiazol-4-yl-methyl)-3,9-diazaspiro[5.5]undecane-3-carbonyl]-2,3-dihydro-1H-inden-1-yl]-benzamide]", "inhibition at 10 µM": 91}
{"molecule": "Cc1c(CN2CCC3(CC2)CCN(C(=O)c2ccc4c(c2)C(NC(=O)c2c(F)cccc2Cl)CC4)CC3)cnn1C", "note": "(stereo not drawn) [IND_CC-798, 2-Chloro-N-[6-[9-[(1,5-dimethyl-1H-pyrazol-4-yl)-methyl]-3,9-diazaspiro-[5.5]undecane-3-carbonyl]-2,3-dihydro-1H-inden-1-yl]-6-fluoro-benzamide]", "inhibition at 10 µM": 71}
{"molecule": "Cc1noc(C)c1CN1CCC2(CC1)CCN(C(=O)c1ccc3c(c1)C(NC(=O)c1c(F)cccc1Cl)CC3)CC2", "note": "(stereo not drawn) [IND_CC-799, 2-Chloro-N-[6-[9-[(3,5-dimethyl-isoxazol-4-yl)-methyl]-3,9-diazaspiro-[5.5]undecane-3-carbonyl]-2,3-dihydro-1H-inden-1-yl]-6-fluoro-benzamide]", "inhibition at 10 µM": 52}
{"molecule": "N#Cc1cccc(CN2CCC3(CC2)CCN(C(=O)c2ccc4c(c2)C(NC(=O)c2c(F)cccc2Cl)CC4)CC3)c1", "note": "(stereo not drawn) [IND_CC-800, 2-Chloro-N-[6-[9-[(3-cyano-phenyl)-methyl]-3,9-diazaspiro[5.5]undecane-3-carbonyl]-2,3-dihydro-1H-inden-1-yl]-6-fluoro-benzamide]", "inhibition at 10 µM": 97}
{"molecule": "N#Cc1ccccc1CN1CCC2(CC1)CCN(C(=O)c1ccc3c(c1)C(NC(=O)c1c(F)cccc1Cl)CC3)CC2", "note": "(stereo not drawn) [IND_CC-801, 2-Chloro-N-[6-[9-[(2-cyano-phenyl)-methyl]-3,9-diazaspiro[5.5]undecane-3-carbonyl]-2,3-dihydro-1H-inden-1-yl]-6-fluoro-benzamide]", "inhibition at 10 µM": 92}
{"molecule": "O=C(NC1CCc2ccc(C(=O)N3CCC4(CCN(Cc5ccc(F)cc5Cl)CC4)CC3)cc21)c1c(F)cccc1Cl", "note": "(stereo not drawn) [IND_CC-802, 2-Chloro-N-[6-[9-[(2-chloro-4-fluoro-phenyl)-methyl]-3,9-diazaspiro-[5.5]undecane-3-carbonyl]-2,3-dihydro-1H-inden-1-yl]-6-fluoro-benzamide]", "inhibition at 10 µM": 89}
{"molecule": "O=C(NC1CCc2ccc(C(=O)N3CCC4(CCN(Cc5c(F)cccc5Cl)CC4)CC3)cc21)c1c(F)cccc1Cl", "note": "(stereo not drawn) [IND_CC-803, 2-Chloro-N-[6-[9-[(2-chloro-6-fluoro-phenyl)-methyl]-3,9-diazaspiro-[5.5]undecane-3-carbonyl]-2,3-dihydro-1H-inden-1-yl]-6-fluoro-benzamide]", "inhibition at 10 µM": 76}
{"molecule": "O=C(NC1CCc2ccc(CC(=O)N3CCC4(CCN(Cc5ccc6ncccc6c5)CC4)C3)cc21)c1ccccc1Cl", "note": "(stereo not drawn) [IND_CC-804, 2-Chloro-N-[6-[2-oxo-2-[8-(quinolin-6-yl-methyl)-3,8-diazaspiro[4.5]decan-3-yl]-ethyl]-2,3-dihydro-1H-inden-1-yl]-benzamide]", "inhibition at 10 µM": 61}
{"molecule": "O=C(NC1CCc2ccc(CC(=O)N3CCC4(CCN(Cc5ccc6nccnc6c5)CC4)C3)cc21)c1ccccc1Cl", "note": "(stereo not drawn) [IND_CC-805, 2-Chloro-N-[6-[2-oxo-2-[8-(quinoxalin-6-yl-methyl)-3,8-diazaspiro[4.5]decan-3-yl]-ethyl]-2,3-dihydro-1H-inden-1-yl]-benzamide]", "inhibition at 10 µM": 51}
{"molecule": "CCC(CC)CN1CCC2(CC1)CCN(C(=O)Cc1ccc3c(c1)C(NC(=O)c1ccccc1Cl)CC3)C2", "note": "(stereo not drawn) [IND_CC-806, 2-Chloro-N-[6-[2-[8-(2-ethyl-butyl)-3,8-diazaspiro[4.5]decan-3-yl]-2-oxo-ethyl]-2,3-dihydro-1H-inden-1-yl]-benzamide]", "inhibition at 10 µM": 75}
{"molecule": "O=C(NC1CCc2ccc(CC(=O)N3CCC4(CCN(CC5CCCCC5)CC4)C3)cc21)c1ccccc1Cl", "note": "(stereo not drawn) [IND_CC-807, 2-Chloro-N-[6-[2-[8-(cyclohexyl-methyl)-3,8-diazaspiro[4.5]decan-3-yl]-2-oxo-ethyl]-2,3-dihydro-1H-inden-1-yl]-benzamide]", "inhibition at 10 µM": 53}
{"molecule": "COc1cc(C)c(S(=O)(=O)NC2CCc3ccc(C(=O)N4CCC5(CCN(c6ccncc6)CC5)C4)cc32)c(C)c1", "note": "(stereo not drawn) [Ind_CC-087, 4-methoxy-2,6-dimethyl-N-[6-(8-pyridin-4-yl-2,8-diazaspiro[4.5]decane-2-carbonyl)-2,3-dihydro-1H-inden-1-yl]-benzenesulfonic acid amide]", "inhibition at 10 µM": 100}
{"molecule": "COc1cc(C)c(C(=O)NC2CCc3ccc(C(=O)N4CCC5(CCN(c6ccncc6)CC5)C4)cc32)c(C)c1", "note": "(stereo not drawn) [Ind_CC-088, 4-methoxy-2,6-dimethyl-N-[6-(8-pyridin-4-yl-2,8-diazaspiro[4.5]decane-2-carbonyl)-2,3-dihydro-1H-inden-1-yl]-benzamide]", "inhibition at 10 µM": 93}
{"molecule": "O=C(c1ccc2c(c1)C(NS(=O)(=O)c1ccccc1Cl)CC2)N1CCC2(CCN(c3ccncc3)CC2)C1", "note": "(stereo not drawn) [Ind_CC-089, 2-chloro-N-[6-(8-pyridin-4-yl-3,8-diazaspiro[4.5]decane-3-carbonyl)-2,3-dihydro-1H-inden-1-yl]-benzenesulfonic acid amide]", "inhibition at 10 µM": 100}
{"molecular_target": "T1, rat B1R (bradykinin receptor 1)", "test": "FLIPR Ca2+ assay (Fluo-4) on CHO K1 cells stably transfected with the B1R gene of the rat (rB1R cells): % inhibition at 10 μM / IC50, agonist Des-Arg9-bradykinin", "format": "cell-based", "conditions": "rat B1R", "method_in_brief": "as §1", "units": {"% Inhibition (rat B1R) at 10 μM": "%"}}
{"molecule": "N,3-Dimethyl-N-[6-(9-pyridin-4-yl-3,9-diazaspiro[5.5]undecane-3-carbonyl)-2,3-dihydro-1H-inden-1-yl]-butyramide [IND_CC-408]", "% Inhibition (rat B1R) at 10 μM": 101}
